Reference: US8304394B2, “Low side effect pharmaceutical composition containing isoniazid” (priority 2008, dated 2012)
Where two headings read alike, the source gives them in different places.

How the values were obtained:
rabbits = conditions: pretreatment with amidase inhibitor; cited from earlier work
[1] = molecular target: T1, cDNA expressed human cytochrome P450 2E1 (CYP2E1) (Homo sapiens, UniProt P05181)
[2] = molecular target: T2, human liver microsomal cytochrome P450 2E1 (CYP2E1) (Homo sapiens, UniProt P05181); assay: Chlorzoxazone hydroxylation inhibition (6-OH-CZX by LC/MS/MS)
T2 sequence (P05181 whole entry): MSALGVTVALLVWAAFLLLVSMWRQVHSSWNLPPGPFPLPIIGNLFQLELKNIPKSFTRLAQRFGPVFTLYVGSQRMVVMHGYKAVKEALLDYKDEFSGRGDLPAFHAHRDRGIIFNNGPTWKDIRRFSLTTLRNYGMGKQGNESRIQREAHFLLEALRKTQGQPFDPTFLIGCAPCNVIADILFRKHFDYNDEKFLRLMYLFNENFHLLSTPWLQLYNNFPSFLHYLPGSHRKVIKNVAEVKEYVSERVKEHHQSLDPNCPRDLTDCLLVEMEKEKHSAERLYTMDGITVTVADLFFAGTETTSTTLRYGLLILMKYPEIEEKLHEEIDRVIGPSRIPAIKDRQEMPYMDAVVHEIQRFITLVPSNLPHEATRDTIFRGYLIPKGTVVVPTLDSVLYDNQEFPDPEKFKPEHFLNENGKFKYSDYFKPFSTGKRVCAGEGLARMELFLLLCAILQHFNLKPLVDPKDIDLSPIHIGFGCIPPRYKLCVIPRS

[3] = molecular target: T2, human liver microsomal cytochrome P450 2E1 (CYP2E1); conditions: for 6-OH-CZX concentration: human, 30 min, pH 7.4
CYP2E1 [4] = molecular target: T3, CYP2E1 (Homo sapiens, UniProt P05181); assay: Chlorzoxazone hydroxylation inhibition (6-OH-CZX by LC/MS/MS); conditions: human, microsomes, pH 7.4
T3 sequence (P05181 whole entry): as above

[5] = molecular target: T1, cDNA expressed human cytochrome P450 2E1 (CYP2E1); conditions: 40 min, pH 7.4
CYP2E1 [6] = molecular target: T3, CYP2E1; assay: in vitro; conditions: for inhibition at 40 min, 16.5 µM: tested concentration 16.5 μM
[7] = system: Male SD (Sprague-Dawley) rats; assay: Rat 21-day INH hepatotoxicity study: plasma AST/ALT, body and relative liver weight; conditions: i.p. once daily for 21 days, INH 25 mg/kg, mean±SD
[8] = system: Male SD (Sprague-Dawley) rats; assay: Galactose elimination capacity (GEC) residual liver function test in the rat INH study; format: in vivo; conditions: i.p. once daily for 21 days, galactose 0.5 g/kg i.v., mean±SD, control 4.9±0.8
Protocol: (§1) Animals were randomized into one of five groups, each involving three treatments. The first treatment involved either a BNPP injection of 25 mg/kg or a BNPP vehicle (VEH1) injection (saline). […] The second treatment involved injections of either 100 mg/kg DSF or DSF vehicle (VEH2, corn oil). DSF was dissolved in corn oil and i.p. injected at a volume of […]. The third treatment involved injections of INH (25 mg/kg) or INH vehicle (VEH3, saline). INH was dissolved in saline (0.9% NaCl), and i.p. injected at a volume of […]. The first treatment (BNPP or VEH1) was administered 30 minutes before the third treatment (INH or VEH3), and the second treatment (DSF or VEH2) was administered 15 minutes before the third treatment (INH or VEH3).
• (1) Normal control group (NC, n=12): continuously injections of VEH1, VEH2 and VEH3 intraperitoneally once every day for 21 days; • (2) INH group (INH, n=7): continuously injections of INH, VEH1 and VEH2 intraperitoneally once every day for 21 days; • (3) BNPP-INH group (BNPP-INH, n=7): continuously injections of BNPP, INH and VEH2 intraperitoneally once every day for 21 days; • (4) DSF-INH group (DSF-INH, n=7): continuously injections of DSF, INH and VEH1 intraperitoneally once every day for 21 days; • (5) BNPP-DSF-INH group (BNPP-DSF-INH, n=7): continuously injections of BNPP DSH and INH intraperitoneally once every day for 21 days; […]

[9] = system: Male SD (Sprague-Dawley) rats; assay: Liver histopathology by light and electron microscopy in the rat INH study; format: in vivo
Protocol: as §1
• (1) Normal control group (NC, n=12): continuously injections of VEH1, VEH2 and VEH3 intraperitoneally once every day for 21 days; • (2) INH group (INH, n=7): continuously injections of INH, VEH1 and VEH2 intraperitoneally once every day for 21 days; • (3) BNPP-INH group (BNPP-INH, n=7): continuously injections of BNPP, INH and VEH2 intraperitoneally once every day for 21 days; • (4) DSF-INH group (DSF-INH, n=7): continuously injections of DSF, INH and VEH1 intraperitoneally once every day for 21 days; • (5) BNPP-DSF-INH group (BNPP-DSF-INH, n=7): continuously injections of BNPP DSH and INH intraperitoneally once every day for 21 days;
After the rats were sacrificed, the livers were subjected to histology analysis.

[10] = pH 7.4, Inhibition of CYP 2E1 (%)

T1 sequence (P05181 whole entry): as above

O=[N+]([O-])c1ccc(OP(=O)(O)Oc2ccc([N+](=O)[O-])cc2)cc1 [BNPP, bis-p-nitrophenyl phosphate]
effect on isoniazid-induced hepatotoxicity (rabbits): can prevent isoniazid-induced hepatotoxicity

COc1c(O)cc2oc(Oc3ccc(O)cc3)cc(=O)c2c1O [Capillarisin]
Inhibition of CYP 2E1 (%) ([1]; tested concentration 16.5 μM): 49.05 ± 5.18% | Inhibition of CYP 2E1 (%) ([1]; tested concentration 33 μM): 60.54 ± 5.91% | Inhibition of CYP 2E1 (%) ([1]; tested concentration 66 μM): 76.12 ± 1.89% | Inhibition of CYP 2E1 (%) ([2]; tested concentration 16.5 μM): 32.89 ± 2.46% | Inhibition of CYP 2E1 (%) ([2]; tested concentration 33 μM): 46.22 ± 2.65% | Inhibition of CYP 2E1 (%) ([2]; tested concentration 66 μM): 57.31 ± 1.31%

CCN(CC)C(=S)S [DDTC, Diethyldithiocarbamic acid]
6-OH-CZX concentration ([3]; 50 μM): 1644.5 pmol | 6-OH-CZX concentration ([3]; 100 μM): 431.2 pmol | inhibition at 30 min, 50 μM (CYP2E1 [4]): 48.7% | inhibition at 30 min, 100 μM (CYP2E1 [4]): 87.6% | HFC synthesis ([5]; 0.03 μM): 256.00 pmol | HFC synthesis ([5]; 0.091 μM): 202.00 pmol | HFC synthesis ([5]; 2.47 μM): 55.18 pmol | HFC synthesis ([5]; 7.4 μM): 21.08 pmol | HFC synthesis ([5]; 22.2 μM): 15.10 pmol | inhibition at 40 min, 0.091 μM (CYP2E1 [6]; pH 7.4, Inhibition of CYP 2E1 (%), DDTC 0.091 μM): 8.71% | inhibition at 40 min, 2.47 μM (CYP2E1 [6]; pH 7.4, Inhibition of CYP 2E1 (%), DDTC 2.47 μM): 75.1% | inhibition at 40 min, 7.4 μM (CYP2E1 [6]; pH 7.4, Inhibition of CYP 2E1 (%), DDTC 7.4 μM): 90.5% | inhibition at 40 min, 22.2 μM (CYP2E1 [6]; pH 7.4, Inhibition of CYP 2E1 (%), DDTC 22.2 μM): 93.2%

NNC(=O)c1ccncc1 [INH, isoniazid]
peak plasma ALT activity ([7]; control 44±6): 52±3 IU/L | peak plasma AST activity ([7]; control 116±11): 129±10 IU/L | GEC value [8]: 3.4±0.6 mg/min·kg | hepatic necrosis (EM results) ([9]; daily i.p. injections for three weeks): no hepatic necrosis was observed | liver injury (histopathology) ([9]; daily i.p. injections for three weeks, versus control group): hepatocellular damage | hepatocyte rough endoplasmic reticulum (rER) versus control ([9]; electron microscopy 9,000×): increased significantly

CC(Cc1ccc(O)c(O)c1)C(C)Cc1ccc(O)c(O)c1 (centres unmarked) [Nordihydroguaiaretic acid]
Inhibition of CYP 2E1 (%) ([3]; microsomes, 33 µM): 67.68. ± 2.24% | inhibition at 30 min, 16.5 µM (CYP2E1 [4]): 49.8 ± 2.42% | inhibition at 30 min, 66 µM (CYP2E1 [4]): 96.98 ± 0.19% | inhibition at 40 min, 33 µM (CYP2E1 [6]; pH 7.4): 92.4 ± 2.2% | inhibition at 40 min, 16.5 µM (CYP2E1 [6]; [10]): 76.5 ± 3.86% | inhibition at 40 min, 66 µM (CYP2E1 [6]; pH 7.4, Inhibition of CYP 2E1 (%), tested concentration 66 μM): 97.99 ± 0.66%

O=c1ccc2ccc(O)cc2o1 [Umbelliferone]
Inhibition of CYP 2E1 (%) ([5]; 33 µM): −571.97 ± 117.56% | Inhibition of CYP 2E1 (%) ([5]; 66 µM): −1081.56 ± 168.00% | inhibition at 40 min, 16.5 µM (CYP2E1 [6]; [10]): -280 ± 19.5%

O=c1cc(-c2ccccc2)oc2ccc3ccccc3c12 [β-naphthoflavone]
Inhibition of CYP 2E1 (%) ([1]; tested concentration 16.5 μM): 6.52 ± 6.64% | Inhibition of CYP 2E1 (%) ([1]; tested concentration 33 μM): 16.83 ± 0.96% | Inhibition of CYP 2E1 (%) ([1]; tested concentration 66 μM): 15.40 ± 12.94%
